Measurements as given in patent US20250221410A1, “SUBSTITUTED 2-C-AZINES AND SALTS THEREOF, AND USE THEREOF AS HERBICIDAL ACTIVE SUBSTANCES” (BAYER AKTIENGESELLSCHAFT, priority 2022, published 2025).

How the values were obtained:
Assay type in all cases: in vivo
[1] = tested on: ABUTH: Abutilon theophrasti; assay: Pre-emergence herbicide efficacy at 1280 g/ha, ABUTH; conditions: visual scoring after about 3 weeks vs untreated controls
Outline: (§1)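 Weed seeds were sown and covered with soil in pots, then treated on the soil surface with formulated compound (WP or EC, 0.5% additive, 600 L/ha water). Visual % damage relative to untreated pots was rated about 3 weeks later under greenhouse conditions, 0% meaning no effect and 100% plant death.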

[2] = tested on: SETVI: Setaria viridis; assay: Pre-emergence herbicide efficacy at 1280 g/ha, SETVI; conditions: visual scoring vs untreated controls
Outline: as §1

[3] = tested on: DIGSA: Digitaria sanguinalis; assay: Pre-emergence herbicide efficacy at 1280 g/ha, DIGSA; conditions: visual scoring after about 3 weeks vs untreated controls
Outline: as §1

[4] = tested on: DIGSA: Digitaria sanguinalis; assay: Post-emergence herbicidal efficacy at 1280 g/ha, DIGSA; conditions: rated visually after about 3 weeks vs untreated controls, 100% = plants have died, 0% = like control plants
Protocol: (§2) Seeds of mono- and dicotyledonous weed plants were placed in plastic pots in sandy loam soil (doubly sown with in each case one species of mono- or dicotyledonous weed plants per pot), covered with soil and cultivated in a greenhouse under controlled growth conditions. 2 to 3 weeks after sowing, the test plants were treated at the one-leaf stage. The compounds of the invention, formulated in the form of wettable powders (WP) or as emulsion concentrates (EC), were applied to the green parts of the plants as aqueous suspension or emulsion with addition of 0.5% additive at a water application rate equivalent to 600 litres per hectare. After the test plants had been kept in the greenhouse under optimum growth conditions for about 3 weeks, the activity of the preparations was rated visually in comparison to untreated controls. For example, 100% activity=the plants have died, 0% activity=like control plants. Tables A1 to A12 below show the effects of selected compounds of the general formula (I) according to Table 1 on various harmful plants and at an application rate corresponding to 1280 g/ha, which were obtained by the trial procedure specified above.

[5] = tested on: KCHSC: Kochia scoparia; assay: Pre-emergence herbicide efficacy at 1280 g/ha, KCHSC; conditions: visual scoring after about 3 weeks vs untreated controls
From the text: (§3) Seeds of mono- and dicotyledonous weed plants were placed in plastic pots in sandy loam soil (doubly sown with one species each of mono- or dicotyledonous weed plants per pot) and covered with soil. The compounds of the invention, formulated in the form of wettable powders (WP) or as emulsion concentrates (EC), were then applied to the surface of the covering soil as aqueous suspension or emulsion with addition of 0.5% additive at a water application rate of 600 litres per hectare (converted). After the treatment, the pots were placed in a greenhouse and kept under good growth conditions for the test plants. After about 3 weeks, the efficacy of the preparations was scored visually in comparison with untreated controls as percentages. For example, 100% activity=the plants have died, 0% activity=like control plants. Tables C1 to C12 below show the effects of selected compounds of the general formula (I) according to Table 1 on various harmful plants and at an application rate corresponding to 1280 g/ha, which were obtained by the trial procedure specified above.

[6] = tested on: VERPE: Veronica persica; assay: Post-emergence herbicidal efficacy at 1280 g/ha, VERPE; conditions: visual rating about 3 weeks after treatment vs untreated controls
Outline: (§4)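 Greenhouse post-emergence spray: one-leaf stage, 2–3 wk after sowing; WP/EC as aqueous suspension/emulsion + 0.5% additive, 600 L/ha water. Visual % activity vs untreated at ~3 wk; 100% = dead, 0% = as control.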

[7] = tested on: ECHCG: Echinochloa crus-galli; assay: Post-emergence herbicidal efficacy at 1280 g/ha, ECHCG; conditions: rated visually after about 3 weeks vs untreated controls, 100% = plants have died, 0% = like control plants
Protocol: as §2

[8] = tested on: STEME: Stellaria media; assay: Post-emergence herbicidal efficacy at 1280 g/ha, STEME; conditions: visual rating about 3 weeks after treatment vs untreated controls
Outline: as §4

[9] = tested on: SETVI: Setaria viridis; assay: Post-emergence herbicidal efficacy at 1280 g/ha, SETVI; conditions: visual rating about 3 weeks after treatment vs untreated controls
Protocol: as §2

[10] = tested on: VERPE: Veronica persica; assay: Pre-emergence herbicide efficacy at 1280 g/ha, VERPE; conditions: visual scoring vs untreated controls
Outline: as §1

[11] = tested on: POAAN: Poa annua; assay: Pre-emergence herbicide efficacy at 1280 g/ha, POAAN; conditions: visual scoring after about 3 weeks vs untreated controls
Outline: as §1

[12] = tested on: KCHSC: Kochia scoparia; assay: Post-emergence herbicidal efficacy at 1280 g/ha, KCHSC; conditions: visual rating about 3 weeks after treatment vs untreated controls
Outline: as §4

[13] = tested on: AMARE: Amaranthus retroflexus; assay: Pre-emergence herbicide efficacy at 1280 g/ha, AMARE; conditions: visual scoring after about 3 weeks vs untreated controls
Outline: as §1

[14] = tested on: STEME: Stellaria media; assay: Pre-emergence herbicide efficacy at 1280 g/ha, STEME; conditions: visual scoring vs untreated controls
Outline: as §1

[15] = tested on: ECHCG: Echinochloa crus-galli; assay: Pre-emergence herbicide efficacy at 1280 g/ha, ECHCG; conditions: visual scoring after about 3 weeks vs untreated controls
Outline: as §1

[16] = tested on: AMARE: Amaranthus retroflexus; assay: Post-emergence herbicidal efficacy at 1280 g/ha, AMARE; conditions: rated visually after about 3 weeks vs untreated controls, 100% = plants have died, 0% = like control plants
Outline: as §4

[17] = tested on: POAAN: Poa annua; assay: Post-emergence herbicidal efficacy at 1280 g/ha, POAAN; conditions: visual rating about 3 weeks after treatment vs untreated controls
Outline: as §4

[18] = tested on: ABUTH: Abutilon theophrasti; assay: Post-emergence herbicidal efficacy at 1280 g/ha, ABUTH; conditions: rated visually after about 3 weeks vs untreated controls, 100% = plants have died, 0% = like control plants
Outline: as §4

[19] = tested on: MATIN: Matricaria inodora; assay: Pre-emergence herbicide efficacy at 1280 g/ha, MATIN; conditions: visual scoring after about 3 weeks vs untreated controls
From the text: as §3

Structure (SMILES) | Pre-emergence efficacy against ABUTH [1] [%] | Pre-emergence efficacy against SETVI in % [2] [%] | Pre-emergence efficacy against DIGSA [3] [%] | Post-emergence efficacy at 1280 g/ha against DIGSA in % [4] [%] | Pre-emergence efficacy against KCHSC [5] [%] | Post-emergence efficacy against VERPE [6] [%] | Post-emergence efficacy at 1280 g/ha against ECHCG in % [7] [%] | Post-emergence efficacy against STEME [8] [%] | Post-emergence efficacy against SETVI [9] [%] | Pre-emergence efficacy against VERPE in % [10] [%] | Pre-emergence efficacy against POAAN [11] [%] | Post-emergence efficacy against KCHSC [12] [%] | Pre-emergence efficacy against AMARE [13] [%] | Pre-emergence efficacy against STEME in % [14] [%] | Pre-emergence efficacy against ECHCG [15] [%] | Post-emergence efficacy at 1280 g/ha against AMARE in % [16] [%] | Post-emergence efficacy against POAAN [17] [%] | Post-emergence efficacy at 1280 g/ha against ABUTH in % [18] [%] | Pre-emergence efficacy against MATIN [19] [%]
Fc1ccc(Cc2ccccc2Cc2ncc(Cl)cn2)cc1 [Example 1-23] | 100 | 100 | 100 | 100 | 90 | 100 | 100 | 90 | 90 | 100 | 90 | 90 | 100 | 100 | 100 | 100 | 100 | 100 | –
FC(F)(F)c1cnn(-c2ccccc2Cc2ncc(Cl)cn2)c1 [Example 1-42] | 100 | 100 | 100 | – | 100 | 90 | 90 | 90 | – | 90 | 90 | – | 100 | 100 | 90 | 100 | 90 | 90 | 90
Clc1cnc(Oc2ccccc2Cc2ncccn2)nc1 [Example 1-76] | 90 | – | – | – | – | 90 | – | – | – | 90 | – | – | 100 | 90 | – | 90 | – | – | 90
Fc1cnc(Cc2ccccc2Oc2ncc(F)cn2)nc1 [Example 1-89] | 100 | 90 | 100 | – | 100 | 100 | – | – | – | 100 | 100 | 100 | 100 | 90 | – | 100 | – | 90 | 100
Clc1ccc(Cc2ccccc2Oc2ncc(Cl)cn2)nc1 [Example 1-91] | 100 | 100 | 100 | 90 | 100 | 100 | – | 100 | 90 | 100 | 100 | 100 | 100 | 100 | 90 | 100 | 100 | 100 | 100
Fc1ccc(Cc2ccccc2Oc2ncc(F)cn2)nc1 [Example 1-93] | 100 | 100 | 100 | – | 100 | 100 | – | – | – | 100 | 100 | 100 | 100 | 100 | 100 | 100 | 100 | 90 | 100
Fc1cnc(Oc2ccccc2Cc2ccc(Cl)cn2)nc1 [Example 1-100] | 100 | 100 | 100 | – | 100 | 100 | – | 90 | 90 | 100 | 100 | 100 | 100 | 100 | 100 | 100 | 100 | 90 | 100
FC(F)(F)CCSc1ccccc1Cc1ncc(Cl)cn1 [Example 1-112] | 90 | 90 | 100 | 90 | 100 | 100 | 90 | 100 | 90 | 100 | 90 | 100 | 100 | 90 | 100 | 100 | 100 | 100 | –
Fc1cnc(Cc2ccccc2-n2cc(C(F)(F)F)cn2)nc1 [Example 1-129] | 100 | 90 | 90 | – | 90 | 90 | – | 100 | – | 90 | 90 | 100 | 100 | 100 | 100 | 100 | 100 | 100 | 100
